Holding throughout (assay): growth of human tumour cells (NCI), 48 h
Test [1] relates to NCI-H460.
The subject of test [2] is UACC-257.
For test [3], the system named is KM12.
Test [4] concerns HCT-15.
Test [5] concerns HCC 2998.
Test [6] deals with HOP-62.
The test system of test [7] is HL-60.
Test [8] concerns OVCAR-5.
The subject of test [9] is MDA-N.
Test [10] deals with TK-10.
For test [11], the system named is SF-268.
The subject of test [12] is MDA-MB-435.
In test [13] the test system is SF-539.
Test [14] has as its system OVCAR-3.
Test [15] deals with OVCAR-4.
Test [16] relates to SK-OV-3.
The test system of test [17] is NCI/ADR-RES.
Test [18] relates to DU-145.

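Five concentrations, 48 hours, 96-well plates. GI50 is the concentration that inhibits growth by half.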 Calls of active or inactive are those of the source. Rule as the data show it: active = GI50 up to about 1.1 µM and inactive = higher. A value given as a limit tells only on which side of the number the result lay.

As to `CCOC(=O)c1c(N)sc2c1C(C(=O)OCC)CC2` (stereo unspecified), the GI50 was 62.1 µM (inactive) in test [1]; > 100 µM (inactive) in test [2]; > 100 µM (inactive) in test [3]; over 100 µM in test [4]; > 100 µM (inactive) in [5]; > 100 µM (inactive) in [6]. The GI50 in [7] was 31.5 µM (inactive); in test [8], > 100 µM (inactive); in [9], > 100 µM (inactive); in test [10], > 100 µM (inactive).

For the compound `O=C1C2CCCCC2C(=O)N1n1c(Cc2ccccc2)n[nH]c1=O` (stereo unspecified), the GI50 is > 100 µM (inactive) in test [11]; > 100 µM (inactive) in test [1]; > 100 µM (inactive) in [2]; > 100 µM (inactive) in [3]; > 100 µM (inactive) in test [12]; over 100 µM in [4]. For the same compound, the GI50 in test [13], in test [14], in test [15], in test [5], in [6] and in test [8] was > 100 µM (inactive) each time. Besides, the GI50 in [16], in test [9], in test [10] and in test [17] was > 100 µM (inactive) throughout.

`COC(=O)c1sc(=S)sc1SCc1ccccc1CSc1sc(=S)sc1C(=O)OC`: the GI50 in [11], in [1], in test [18], in [2], in test [3] and in test [12] was > 100 µM (inactive) in each case. Also, the GI50 was over 100 µM in test [4]; > 100 µM (inactive) in [14]; > 100 µM (inactive) in [15]; > 100 µM (inactive) in test [5]; 85.7 µM (inactive) in [6]; > 100 µM (inactive) in test [8]. Further, the GI50 in [16] is 46.6 µM (inactive); in test [9], > 100 µM (inactive); in test [10], > 100 µM (inactive); in [17], > 100 µM (inactive).

Take `O=C1c2cc(Cl)ccc2N=C(NCCCl)C2CSCN12` (stereo unspecified): the GI50 in test [11], in [1], in test [18], in test [2], in test [3] and in test [12] was > 100 µM (inactive) in each case. The GI50 was over 100 µM in test [4]; > 100 µM (inactive) in [14]; > 100 µM (inactive) in [15]; > 100 µM (inactive) in test [5]; > 100 µM (inactive) in test [6]; > 100 µM (inactive) in test [8]. The GI50 in [16], in [9], in test [10] and in [17] was > 100 µM (inactive) each time.

Consider `O=C1Cc2c(-c3cccs3)cc(-c3ccccc3)nc2-c2ccccc2N1`, for which the GI50 is 10.8 µM (inactive) in test [11]; 24 µM (inactive) in [1]; > 100 µM (inactive) in [18]; > 100 µM (inactive) in test [2]; 14 µM (inactive) in [3]; 78 µM (inactive) in [12]. For the same compound, the GI50 in [4] is 40.1 µM; in [13], 22.7 µM (inactive); in test [14], 33.4 µM (inactive); in test [15] it was 0.855 µM (active); in [5] it was 47.3 µM (inactive); in [6] it was 24.7 µM (inactive). Also, the GI50 in test [8] was > 100 µM (inactive); in test [16], 24.4 µM (inactive); in test [9] it was 21.8 µM (inactive); in test [10] it was > 100 µM (inactive); in [17], 18.5 µM (inactive).

For `COC(=O)C(/C(=N/N)C(=O)Nc1cc(Cl)c(Cl)cc1Cl)c1nc2ccc(Cl)cc2nc1O` (stereo unspecified), the GI50 is > 100 µM (inactive) in [11]; > 100 µM (inactive) in [1]; > 100 µM (inactive) in test [2]; > 100 µM (inactive) in test [3]; > 100 µM (inactive) in test [12]; over 100 µM in [4]. Further, the GI50 in test [13] was > 100 µM (inactive); in test [14], 95.3 µM (inactive); in test [15], 2.79 µM (inactive); in test [6], > 100 µM (inactive); in [7], > 100 µM (inactive); in test [8] it was > 100 µM (inactive). In addition, the GI50 in test [16] was > 100 µM (inactive); in [9], > 100 µM (inactive); in test [10], > 100 µM (inactive); in test [17], 84.5 µM (inactive).

In the case of `COC(=O)[C@@H]1C[C@@]2(C3C=CN(C(=O)C(F)(F)F)C=C3)c3ccccc3N(C(=O)C(F)(F)F)[C@H]2N1C(=O)OC`, the GI50 was 43 µM (inactive) in [11]; > 100 µM (inactive) in test [1]; > 100 µM (inactive) in test [18]; > 100 µM (inactive) in test [2]; > 100 µM (inactive) in test [3]; 44.8 µM (inactive) in test [12]. In addition, the GI50 in test [4] is 88.1 µM; in test [13], > 100 µM (inactive); in test [14], 90.8 µM (inactive); in test [15] it was 93.3 µM (inactive); in test [5], 57.8 µM (inactive); in test [6], 49.5 µM (inactive). The GI50 is 30.9 µM (inactive) in test [7]; > 100 µM (inactive) in test [8]; > 100 µM (inactive) in test [16]; 16.9 µM (inactive) in test [10]; > 100 µM (inactive) in test [17].

Turning to `C/C(=N\Nc1nc2ccccc2s1)c1ccncn1`, the GI50 in test [11] is 0.603 µM (active); in test [1], 0.438 µM (active); in test [18], 3.54 µM (inactive); in test [2], 0.719 µM (active); in test [3], 1.42 µM (inactive); in test [12] it was 2.69 µM (inactive). Further, the GI50 is 0.661 µM in [4]; 1.39 µM (inactive) in test [13]; 0.366 µM (active) in test [14]; 2.52 µM (inactive) in [15]; 4.88 µM (inactive) in [5]; 2.28 µM (inactive) in [6]. For the same compound, the GI50 in test [8] was 3.13 µM (inactive); in test [16], 1.74 µM (inactive); in test [9], 9.44 µM (inactive); in [17], 0.351 µM (active).

As for `O=C(N/N=C/c1ccc(Br)cc1)N/N=C/c1ccc(Br)cc1`, the GI50 in [11] is 10.4 µM (inactive); in test [18] it was 9.12 µM (inactive); in test [2], 17.6 µM (inactive); in test [3], 17.1 µM (inactive); in [12], 12.3 µM (inactive); in test [4], 16.8 µM. Moreover, the GI50 in test [14] is 3.81 µM (inactive); in test [15] it was 2.37 µM (inactive); in test [5], 17.3 µM (inactive); in test [6], 5.56 µM (inactive); in test [7], 13.2 µM (inactive); in [8], 35.3 µM (inactive). The GI50 in test [16] is 2.43 µM (inactive); in test [9], 10.2 µM (inactive); in test [10], 2.44 µM (inactive); in [17] it was 5.6 µM (inactive).

Take `COC(=O)/C=C1\C(CO[Si](C)(C)C(C)(C)C)OC(n2cc(C)c(=O)n(C)c2=O)C1O[Si](C)(C)C(C)(C)C` (stereo unspecified): the GI50 in [11] was > 100 µM (inactive); in [18], > 100 µM (inactive); in test [3] it was > 100 µM (inactive); in test [12], 62.4 µM (inactive); in test [4] it was over 100 µM; in test [14] it was > 100 µM (inactive). The GI50 in test [6], in test [8], in test [16], in test [9], in [10] and in test [17] was > 100 µM (inactive) throughout.

With `C/C=C/C(C#N)(/C=C/c1ccccc1)OP1(=O)OC(c2ccccc2)C(C)N1C` (stereo unspecified), the GI50 was 19.6 µM (inactive) in test [11]; 17.9 µM (inactive) in test [1]; 30 µM (inactive) in test [18]; 19.1 µM (inactive) in test [2]; 19 µM (inactive) in [3]; 18.2 µM (inactive) in [12]. For the same compound, the GI50 was 17.8 µM (inactive) in test [13]; 19.5 µM (inactive) in [14]; 14 µM (inactive) in [5]; 19.4 µM (inactive) in [6]; 12.6 µM (inactive) in test [7]; 20.1 µM (inactive) in test [8]. The GI50 in [16] was 25.8 µM (inactive); in test [9] it was 20.3 µM (inactive); in test [10] it was 19.9 µM (inactive).

As to `CCN(CC(COc1ccc2c(c1)[n+]([O-])nc(N)[n+]2[O-])OC(C)=O)C(C)=O` (stereo unspecified), the GI50 is 56 µM (inactive) in test [11]; > 10 µM (inactive) in test [1]; > 10 µM (inactive) in test [18]; 76.7 µM (inactive) in [2]; 95.5 µM (inactive) in test [3]; 90.4 µM (inactive) in test [12]. Further, the GI50 is over 100 µM in test [4]; > 100 µM (inactive) in test [13]; 76.2 µM (inactive) in test [14]; 50.5 µM (inactive) in test [15]; 45.9 µM (inactive) in test [6]; 80.4 µM (inactive) in test [7]. The GI50 is > 100 µM (inactive) in [8]; 15.2 µM (inactive) in test [16]; 85.7 µM (inactive) in test [9]; > 100 µM (inactive) in test [10]; > 100 µM (inactive) in [17].

As to `O=S(=O)(N/C(=N\O)Nc1ccc(Cl)cc1)c1cc(C(F)(F)F)cc(C(F)(F)F)c1`, the GI50 in test [11] was 21.6 µM (inactive); in test [1], 26.4 µM (inactive); in test [18], 21.3 µM (inactive); in test [2] it was 20.9 µM (inactive); in test [3], 19.7 µM (inactive); in test [12], 20.3 µM (inactive). In addition, the GI50 in [4] was 19.9 µM; in test [13] it was 22.3 µM (inactive); in test [14], 16 µM (inactive); in test [15], 15 µM (inactive); in test [6] it was 18.7 µM (inactive); in [7] it was 24.3 µM (inactive). Further, the GI50 in test [8] is 16.3 µM (inactive); in [16] it was 18.6 µM (inactive); in test [9], 21 µM (inactive); in test [10], 19.2 µM (inactive); in test [17], 24.9 µM (inactive).
